How the values were obtained:
[1] = pH 7.4; cited from earlier work
[2] = Long-term stability in the preferred embodiment (HPLC and/or bioactivity)
Experimental: The vials containing 1 mL of formulated drug were put into thermostatted chambers and assayed for % peptide remaining as a function of time after storage at different temperatures. Bioactivity of the formulations at the time points was also measured.
GRF activity was assessed similarly using a cell line containing an expressed GRF receptor and monitoring the response of cell to GRF by the cAMP-responsive secreted alkaline phosphatase reporter system.

[3] = Total GRF in plasma after intravenous bolus in a rat; assay type: in vivo; conditions: intravenous bolus of 20 μg, 10 mM sodium acetate, 5.07% D-mannitol, pH 4.7
Experimental: Total GRF detected in the plasma of a rat following intravenous administration of 20 μg of GRF in the preferred formulation (4 mg/mL GRF dissolved in 10 mM sodium acetate, 5.07% D-mannitol, adjusted to pH 4.7).

[4] = Tolerability and response after subcutaneous or intravenous delivery of the formulations in humans
[5] = Stability of GLP-1, PTH and GRF in the preferred formulation by reversed phase HPLC (percent peptide remaining); conditions: 10 mM acetate; for Percent peptide remaining: 5.07% (w/v) D-mannitol, pH 4.7; for stability: 4, 8, and 10 mg/mL, pH 4.7, 5.07% D-mannitol
Experimental: The vials were stored at the indicated temperatures for the indicated times. Samples were removed and assayed for the loss of parent peptide by HPLC, using a reversed phase C18 (1×15 cm) analytical column. Samples (10 μl) were injected directly and resolved with a gradient of acetonitrile in water, in the presence of 0.1% trifluoroacetic acid. Percent peptide remaining at the times indicated was calculated as the area of the intact peptide divided by the total area of the intact peptide plus that of the decomposition products times 100.

appearance of peptide in blood plasma [3]	stability (additional formulations, extended periods) ([2]; 4-6 weeks at 25° C.)	stability (additional formulations, extended periods) ([2]; 12 months at 4° C.)	stability compared with the GLP-1 formulations ([2]; formulations where the peptide is GRF or PTH, Drawings 3, 5)	Percent peptide remaining ([5]; 4 mg/mL, 14 days, 4° C.)	Percent peptide remaining ([5]; 4 mg/mL, 14 days, 25° C.)	Percent peptide remaining ([5]; 4 mg/mL, 14 days, 50° C.)	Percent peptide remaining ([5]; 8 mg/mL, 14 days, 4° C.)	Percent peptide remaining ([5]; 8 mg/mL, 14 days, 25° C.)	Percent peptide remaining ([5]; 8 mg/mL, 14 days, 50° C.)	Percent peptide remaining ([5]; 10 mg/mL, 14 days, 4° C.)	Percent peptide remaining ([5]; 10 mg/mL, 14 days, 25° C.)	Percent peptide remaining ([5]; 10 mg/mL, 14 days, 50° C.)	stability ([5]; 25° C., 14 days)	stability ([5]; 50° C., 14 days)	stability ([5]; −20° C. to 4° C., over 14 days)	Compound	solubility at physiological pH [1]	period over which the peptide was stable ([2]; about 0.005 to 1.0 mg/mL, 4° C., inventive formulations)	complications of delivery ([4]; human subjects, intravenous and subcutaneous delivery, preferred formulations)	discomfort at the injection site ([4]; humans, subcutaneous, about 1 mL)
–	–	–	–	–	–	–	–	–	–	–	–	–	–	–	–	PTH(1-34)OH	up to 4 mg/mL	4 months	–	–
rapidly appears in the blood plasma	at least 90%	at least 90%	comparable stability	98%	96%	63%	98%	96%	63%	98%	96%	63%	at least 96%	63%	at least 98%	CC[C@H](C)[C@H](NC(=O)[C@H](C)NC(=O)[C@H](CC(=O)O)NC(=O)[C@H](C)NC(=O)[C@@H](N)Cc1ccc(O)cc1)C(=O)N[C@@H](Cc1ccccc1)C(=O)N[C@H](C(=O)N[C@@H](CC(N)=O)C(=O)N[C@@H](CO)C(=O)N[C@@H](Cc1ccc(O)cc1)C(=O)N[C@@H](CCCNC(=N)N)C(=O)N[C@@H](CCCCN)C(=O)N[C@H](C(=O)N[C@@H](CC(C)C)C(=O)NCC(=O)N[C@@H](CCC(N)=O)C(=O)N[C@@H](CC(C)C)C(=O)N[C@@H](CO)C(=O)N[C@@H](C)C(=O)N[C@@H](CCCNC(=N)N)C(=O)N[C@@H](CCCCN)C(=O)N[C@@H](CC(C)C)C(=O)N[C@@H](CC(C)C)C(=O)N[C@@H](CCC(N)=O)C(=O)N[C@@H](CC(=O)O)C(=O)N[C@H](C(=O)N[C@@H](CCSC)C(=O)N[C@@H](CO)C(=O)N[C@@H](CCCNC(=N)N)C(=O)N[C@@H](CCC(N)=O)C(=O)N[C@@H](CCC(N)=O)C(=O)NCC(=O)N[C@@H](CCC(=O)O)C(=O)N[C@@H](CO)C(=O)N[C@@H](CC(N)=O)C(=O)N[C@@H](CCC(N)=O)C(=O)N[C@@H](CCC(=O)O)C(=O)N[C@@H](CCCNC(=N)N)C(=O)NCC(=O)N[C@@H](C)C(=O)N[C@@H](CCCNC(=N)N)C(=O)N[C@@H](C)C(=O)N[C@@H](CCCNC(=N)N)C(=O)N[C@@H](CC(C)C)C(N)=O)[C@@H](C)CC)C(C)C)[C@@H](C)O [GRF, GRF(1-44)amide]	–	–	no significant complications	no apparent discomfort
